The target in this assay is ATX (human His-tagged) (Homo sapiens (Human), UniProt Q13822). In words: Human ATX enzyme inhibition assay (fluorescence quenching, MR121 substrate). Format: biochemical. The settings on record: 30 nM ATX, 1 μM MR121 substrate, 30° C., pH 8.0. In a few lines: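 Fluorescence quenching assay with MR121/tryptophan-labelled substrate analogue in Tris-HCl buffer (140 mM NaCl, CaCl2, MgCl2, 0.01% Triton X-100, pH 8.0). Serially diluted compounds were preincubated 15 min at 30 °C with 30 nM ATX (final), then 1 µM substrate (final) added and incubated 15 min at 30 °C.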
`CC(C)Oc1cc(C(=O)N2C[C@@H]3[C@H]4CN(C(=O)c5ccc(S(N)(=O)=O)cc5)C[C@H]4[C@@H]3C2)cc2ccccc12` [Example 1.062, 4-[(3aS,3bS,6aR,6bR)-5-(4-isopropoxy-naphthalene-2-carbonyl)-octahydro-cyclobuta[1,2-c;3,4-c′]dipyrrole-2-carbonyl]benzenesulfonamide] came in with an IC50 of 9 nM.

Turning to `O=C(c1ccc(-c2ccc(Cl)cc2)nc1)N1C[C@@H]2[C@H](C1)[C@H]1CN(C(=O)[C@@H]3CCc4[nH]nnc4C3)C[C@@H]21` [Example 1.063, [6-(4-chloro-phenyl)-pyridin-3-yl]-[(3aR,3bS,6aR,6bS)-5-((R)-4,5,6,7-tetrahydro-1H-benzotriazole-5-carbonyl)-octahydro-cyclobuta[1,2-c;3,4-c′]dipyrrol-2-yl]-methanone], the IC50 stood at 1 nM.

As to `O=C(c1cc2ccccc2c(OCC2CC2)n1)N1C[C@@H]2[C@H](C1)[C@H]1CN(C(=O)[C@@H]3CCc4[nH]nnc4C3)C[C@@H]21` [Example 1.064, (1-cyclopropylmethoxy-isoquinolin-3-yl)-[(3aR,3bS,6aR,6bS)-5-((R)-4,5,6,7-tetrahydro-1H-benzotriazole-5-carbonyl)-octahydro-cyclobuta[1,2-c;3,4-c′]dipyrrol-2-yl]-methanone], the IC50 is 1 nM.

Turning to `CC(C)Oc1cc(C(=O)N2C[C@@H]3[C@H]4CN(C(=O)c5ccc6[nH]nnc6c5)C[C@H]4[C@@H]3C2)cc2c1ccn2C` [Example 1.065, [(3aS,3bS,6aR,6bR)-5-(1H-benzotriazole-5-carbonyl)-octahydro-cyclobuta[1,2-c;3,4-c′]dipyrrol-2-yl]-(4-isopropoxy-1-methyl-1H-indol-6-yl)-methanone], the midpoint of inhibition, the IC50, lay at 6.5 nM.

In turn, `CCOc1cc(C(=O)N2C[C@@H]3[C@H]4CN(C(=O)c5ccc6[nH]nnc6c5)C[C@H]4[C@@H]3C2)nc2ccccc12` [Example 1.066, [(3aR,3bS,6aR,6bS)-5-(1H-benzotriazole-5-carbonyl)-octahydro-cyclobuta[1,2-c;3,4-c′]dipyrrol-2-yl]-(4-ethoxy-quinolin-2-yl)-methanone] registered an IC50 of 5 nM.

Take `CC(C)Oc1cc(C(=O)N2C[C@@H]3[C@H]4CN(C(=O)c5ccc6[nH]nnc6c5)C[C@H]4[C@@H]3C2)nc2ccccc12` [Example 1.067, [(3aR,3bS,6aR,6bS)-5-(1H-benzotriazole-5-carbonyl)-octahydro-cyclobuta[1,2-c;3,4-c′]dipyrrol-2-yl]-(4-isopropoxy-quinolin-2-yl)-methanone]: half-maximal inhibition (IC50) was put at 5 nM.

Compound `O=C(c1ccc2[nH]nnc2c1)N1C[C@@H]2[C@H](C1)[C@H]1CN(C(=O)c3ccc4c(c3)[nH]c3ccc(Cl)cc34)C[C@@H]21` [Example 1.068, [(3aS,3bS,6aR,6bR)-5-(1H-benzotriazole-5-carbonyl)-octahydro-cyclobuta[1,2-c;3,4-c′]dipyrrol-2-yl]-(6-chloro-9H-carbazol-2-yl)-methanone] yielded an IC50 of 14.3 nM.

`COCCOc1cc(C(=O)N2C[C@@H]3[C@H]4CN(C(=O)c5ccc6[nH]nnc6c5)C[C@H]4[C@@H]3C2)nc2ccccc12` [Example 1.069, [(3aR,3bS,6aR,6bS)-5-(1H-benzotriazole-5-carbonyl)-octahydro-cyclobuta[1,2-c;3,4-c′]dipyrrol-2-yl]-[4-(2-methoxy-ethoxy)-quinolin-2-yl]-methanone] came in with an IC50 of 8 nM.

The compound `CC(C)Oc1cc(C(=O)N2C[C@@H]3[C@H]4CN(C(=O)c5ccc6[nH]nnc6c5)C[C@H]4[C@@H]3C2)nc2cc(C(F)(F)F)ccc12` [Example 1.070, [(3aR,3bS,6aR,6bS)-5-(1H-benzotriazole-5-carbonyl)-octahydro-cyclobuta[1,2-c;3,4-c′]dipyrrol-2-yl]-(4-isopropoxy-7-trifluoromethyl-quinolin-2-yl)-methanone] showed an IC50 of 4 nM.

By IC50 is commonly meant the point on the concentration scale where inhibition reaches its midpoint. Higher therefore signals lower potency.

The values above are taken from patent publication US10849881B2, “Octahydro-cyclobuta[1,2-c;3,4-c′]dipyrrol-2-yl” (Hoffmann-La Roche Inc., priority 2013, dated 2020).
